# Data taken from US12685777B2, “Compositions, systems, and methods for modulating a target gene” (The Board of Trustees of the Leland Stanford Junior …, priority 2022, dated 2026).
# pIC50: −log10 of the molar value. Several values for one entry are separate records, joined by “and”; a condition that tells them apart may be missing. Equal values may be shown once. Read-outs that look alike come from different tables or passages of the source.
# Experiments:
# [1] = Mouse tolerability and pharmacokinetic study; assay type: in vivo
# Protocol: Vehicle was the same formulation (5/5/80 DMSO/Tween-80/Saline). The formulation was checked to be a clear solution and after administration, the animal was put back in its cage. For PK properties, plasma levels were measured at 0, 5, 15, 30, 60, 120, 240, 360, and 480 mins after drug administration. For tolerability work, bodyweights and observation of animal health were recorded each day through 5 days of dosing once daily. After 5 days, tissues were collected 8 hours after the last drug administration and split into one part for RNA-seq, homogenized in TRIzoI (Thermo #15596026), another part for histology, snap-frozen, and another part for measurement of drug levels where molar concentrations were recorded with the assumption of 1 g tissue ~1 mL. FFPE blocks (on snap-frozen tissue) and H & E staining were done by the Stanford Histology/Pathology Service Core, by Prof. Hannes Vogel, MD and Pauline Chu.
# After treatment, mouse tissue was harvested for RNA-seq and histology.
# DMS-79 = test: Dose response on viability of small cell lung cancer line, resazurin assay; assay type: cell-based; settings: Homo sapiens; DMS-79, 72 h treatment
# Protocol: (§1) IC50 of JWZ-7-7, BI-3812, JQ1, and combinations were calculated based on a dose response curve on three small cell lung cancer lines (FIG. 5). The dose response curve on viability was performed in technical replicates and biological triplicate after treating cells for 72 hours across a broad range of concentrations via serial dilutions. Viable cells were measured after treatment via a resazurin assay. The signal for viable assays was normalized to the DMSO treated negative control. A four-parameter non-linear fit was performed to fit a curve to calculate the IC50 for each of the cell lines. The table below describes the calculated IC50 across JWZ-7-7, JQ1, BI-3812 and combination of JQ1 and BI-3812 after 72 h treatment in technical replicates and biological triplicates.
# NCI-H1105 = test: as above; assay type: cell-based; settings: NCI-H1105, 72 h treatment; read-out: IC50
# Protocol: as §1
# NCI-H2196 = test: as above; assay type: cell-based; settings: Homo sapiens; NCI-H2196, 72 h treatment
# Protocol: as §1
# [2] = Measurement of serum half life (pharmacokinetics) in mice; assay type: in vivo
# Protocol: Tests were performed to determine whether JWZ-7-7 is capable of maintaining sufficiently high blood levels for killing SCLC and DLBCL. Formulations for either IV or IP administration were prepared as follows:
# • Concentration: 0.6 mg/ml • Composition: 5/5/90 DMSO/Tween80/saline • Dose: 5 μl/g body weight • Appearance: clear solution Formulation #2—Used for IP Animals • Concentration: 1 mg/ml • Composition: 5/5/90 DMSO/Tween80/saline • Dose: 10 μl/g body weight • Appearance: clear solution
# After either IV or IP injection of 3 mice each with either 3 mg/Kg (IV) or 10 mg/Kg(IP), the levels of JWZ-7-7 were measured at the indicated intervals. The calculated T1/2 is 4.47 hours for IV injection and 5.63 hours for […].
# [3] = C57BL/6 mice, 10 mg/kg IP once daily for 5 days
# [4] = RNA-seq, 10 mg/kg IP q.d. 5 days
# [5] = mouse, 3 mg/Kg IV, individual mice and Avg., 3 mg/kg
# [6] = mouse, 3 mg/Kg IV, individual mice and Avg., 3 mg/kg, mean
# [7] = mouse, 10 mg/Kg IP, individual mice and Avg., 10 mg/kg
# [8] = mouse, 10 mg/Kg IP, individual mice and Avg., 10 mg/kg, mean
structure (smiles),measurement,setting,value
CNC(=O)COc1cc2cc(Nc3nc(N4CCC(C(=O)NCCCCCCCNC(=O)C[C@@H]5N=C(c6ccc(Cl)cc6)c6c(sc(C)c6C)-n6c(C)nnc65)CC4)ncc3Cl)cc(OC)c2n(C)c1=O [TCIP1],Body weight change,[1]; [3],no significant changes in mouse body weight
same,H & E staining and examination of tissue,[1]; [3],did not reveal noticeable abnormalities
same,Tolerability,[1]; [3],well-tolerated with no adverse effects noticed
same,Genes downregulated in the liver,[1]; [4],167 genes
same,Genes downregulated in the lung,[1]; [4],204 genes
same,Genes downregulated in the spleen,[1]; [4],"2,471 genes"
same,Genes upregulated in the liver,[1]; [4],255 genes
same,Genes upregulated in the lung,[1]; [4],301 genes
same,Genes upregulated in the spleen,[1]; [4],"2,785 genes"
"CNC(=O)COc1cc2cc(Nc3nc(N4CCC(C(=O)NCCCCCCCNC(=O)C[C@@H]5N=C(c6ccc(Cl)cc6)c6c(sc(C)c6C)-n6c(C)nnc65)CC4)ncc3Cl)cc(OC)c2n(C)c1=O [JWZ-7-7, (S)-1-(5-chloro-4-((8-methoxy-1-methyl-3-(2-(methylamino)-2-oxoethoxy)-2-oxo-1,2-dihydroquinolin-6-yl)amino)pyrimidin-2-yl)-N-(7-(2-(4-(4-chlorophenyl)-2,3,9-trimethyl-6H-thieno[3,2-f][1,2,4]triazolo[4,3-a][1,4]diazepin-6-yl)acetamido)heptyl)piperidine-4-carboxamide]",pIC50,DMS-79,7.18
same,pIC50,NCI-H1105,7.12
same,pIC50,NCI-H2196,7.09
same,half-life,"[2]; C57BL/6, mouse, serum, ip, 10 mg/kg, 10 mg/Kg IP, individual mice and Avg.",5.63 h
same,Stability in serum,[2]; mouse,stable in serum
same,AUC% Extrap,[2]; [5],6.66% and 9.35% and 9.79%
same,AUCINF_obs,[2]; [5],797713 ng·min/mL and 444167 ng·min/mL and 988029 ng·min/mL
same,AUClast,[2]; [5],744580 min*ng/mL and 12.11 μM · hr and 402652 min*ng/mL and 6.55 μM · hr and 891309 min*ng/mL and 14.50 μM · hr
same,CI_obs,[2]; [5],3.8 mL/min/kg and 6.8 mL/min/kg and 3.0 mL/min/kg
same,Cmax,[2]; [5],31100 ng/mL and 14500 ng/mL and 36500 ng/mL
same,MRTINF_obs,[2]; [5],2.39 h and 2.14 h
same,T1/2,[2]; [5],3.74 h and 3.93 h and 5.73 h
same,Vss_obs,[2]; [5],0.36 L/kg and 0.97 L/kg and 0.39 L/kg
same,AUC% Extrap,[2]; [6],8.60%
same,AUCINF_obs,[2]; [6],743303 ng·min/mL
same,AUClast,[2]; [6],679514 min*ng/mL and 11.06 μM · hr
same,CI_obs,[2]; [6],4.5 mL/min/kg
same,Cmax,[2]; [6],27367 ng/mL
same,MRTINF_obs,[2]; [6],2.04 h
same,Vss_obs,[2]; [6],0.57 L/kg
same,Cmax,"[2]; mouse, 3 mg/Kg IV, individual mice and Avg., 3 mg/kg, mean, read-out: Cmax",26.7 µM
same,Cmax,"[2]; mouse, 3 mg/Kg IV, individual mice and Avg., 3 mg/kg, read-out: Cmax",30.4 µM and 14.2 µM and 35.6 µM
same,AUC% Extrap,[2]; [7],42.22% and 42.00% and 38.85%
same,AUCINF_obs,[2]; [7],174254 ng·min/mL and 349182 ng·min/mL and 315593 ng·min/mL
same,AUClast,[2]; [7],100685 min*ng/mL and 1.64 μM · hr and 202511 min*ng/mL and 3.29 μM · hr and 192976 min*ng/mL and 3.14 μM · hr
same,Cl_obs,[2]; [7],57.4 mL/min/kg and 28.6 mL/min/kg and 31.7 mL/min/kg
same,Cmax,[2]; [7],389 ng/mL and 805 ng/mL and 885 ng/mL
same,T1/2,[2]; [7],5.48 h and 6.32 h and 5.08 h
same,Tmax,[2]; [7],0.50 h and 1.00 h
same,AUC% Extrap,[2]; [8],41.03%
same,AUCINF_obs,[2]; [8],279676 ng·min/mL
same,AUClast,[2]; [8],165391 min*ng/mL and 2.69 μM · hr
same,Cl_obs,[2]; [8],39.2 mL/min/kg
same,Cmax,[2]; [8],693 ng/mL
same,Tmax,[2]; [8],0.53 h
same,Cmax,"[2]; mouse, 10 mg/Kg IP, individual mice and Avg., 10 mg/kg, mean, read-out: Cmax",0.68 µM
same,Cmax,"[2]; mouse, 10 mg/Kg IP, individual mice and Avg., 10 mg/kg, read-out: Cmax",0.38 µM and 0.79 µM and 0.86 µM
same,half-life,"[2]; mouse, serum, iv, 3 mg/kg, 3 mg/Kg IV, individual mice and Avg.",4.47 h
same,MRT inf,"[2]; mouse, serum, iv, 3 mg/kg, 3 mg/Kg IV, individual mice and Avg., read-out: MRTINF_obs",1.59 h
same,Tmax,"[2]; mouse, serum, iv, 3 mg/kg, 3 mg/Kg IV, individual mice and Avg., read-out: Tmax",0.08 h
